# ChEMBL document CHEMBL1145366, “A new class of histamine H3 receptor antagonists derived from ligand based design” (Bioorg Med Chem Lett, 2007)
# pEC50, pKi: −log10 of the molar value.
# What was measured:
# [1] = molecular target: Histamine H1 receptor (Homo sapiens) (UniProt P35367); assay: Displacement of [3H]pyrilamine from human histamine H1 receptor at 10 uM
# Histamine H3 receptor [2] = molecular target: T1, Histamine H3 receptor (Homo sapiens, UniProt Q9Y5N1); assay: Binding affinity to human histamine H3 receptor
# T1 sequence (Q9Y5N1 whole entry): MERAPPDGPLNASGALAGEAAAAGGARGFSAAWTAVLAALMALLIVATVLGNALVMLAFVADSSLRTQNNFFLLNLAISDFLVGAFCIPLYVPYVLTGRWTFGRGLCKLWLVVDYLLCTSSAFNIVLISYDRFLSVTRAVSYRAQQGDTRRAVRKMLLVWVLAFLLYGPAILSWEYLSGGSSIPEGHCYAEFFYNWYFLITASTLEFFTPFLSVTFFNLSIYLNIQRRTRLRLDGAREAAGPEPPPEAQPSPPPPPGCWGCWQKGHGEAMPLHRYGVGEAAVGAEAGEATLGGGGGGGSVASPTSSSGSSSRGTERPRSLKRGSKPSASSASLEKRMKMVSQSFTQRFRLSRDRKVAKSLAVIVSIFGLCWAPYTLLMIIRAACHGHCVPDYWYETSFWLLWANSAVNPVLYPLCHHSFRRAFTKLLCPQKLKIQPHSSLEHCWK
# Histamine H3 receptor [3] = molecular target: T1, Histamine H3 receptor; assay: Displacement of [3H](R)-alpha-methylhistamine from human histamine H3 receptor at 10 uM
# Histamine H3 receptor [4] = molecular target: T1, Histamine H3 receptor; assay: Inverse agonist activity at human histamine H3 receptor by GTP gammaS assay; assay type: functional
# [5] = molecular target: Histamine H2 receptor (Homo sapiens) (UniProt P25021); assay: Displacement of [3H]tiotidine from human histamine H2 receptor at 10 uM
# Chain of Histamine H2 receptor (Homo sapiens) (P25021 whole entry): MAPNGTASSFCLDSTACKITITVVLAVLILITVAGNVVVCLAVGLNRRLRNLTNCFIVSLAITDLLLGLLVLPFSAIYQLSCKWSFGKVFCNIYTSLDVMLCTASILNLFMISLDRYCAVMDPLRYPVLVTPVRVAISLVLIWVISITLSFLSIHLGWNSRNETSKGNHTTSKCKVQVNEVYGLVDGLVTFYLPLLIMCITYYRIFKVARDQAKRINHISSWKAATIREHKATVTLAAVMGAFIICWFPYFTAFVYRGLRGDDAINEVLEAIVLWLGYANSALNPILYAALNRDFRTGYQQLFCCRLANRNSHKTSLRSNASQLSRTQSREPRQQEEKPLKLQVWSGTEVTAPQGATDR
# Histamine H3 receptor [6] = molecular target: Histamine H3 receptor (Rattus norvegicus, UniProt Q9QYN8); assay: Binding affinity to rat histamine H3 receptor
# Chain of Histamine H3 receptor (Rattus norvegicus, UniProt Q9QYN8) (Q9QYN8 whole entry): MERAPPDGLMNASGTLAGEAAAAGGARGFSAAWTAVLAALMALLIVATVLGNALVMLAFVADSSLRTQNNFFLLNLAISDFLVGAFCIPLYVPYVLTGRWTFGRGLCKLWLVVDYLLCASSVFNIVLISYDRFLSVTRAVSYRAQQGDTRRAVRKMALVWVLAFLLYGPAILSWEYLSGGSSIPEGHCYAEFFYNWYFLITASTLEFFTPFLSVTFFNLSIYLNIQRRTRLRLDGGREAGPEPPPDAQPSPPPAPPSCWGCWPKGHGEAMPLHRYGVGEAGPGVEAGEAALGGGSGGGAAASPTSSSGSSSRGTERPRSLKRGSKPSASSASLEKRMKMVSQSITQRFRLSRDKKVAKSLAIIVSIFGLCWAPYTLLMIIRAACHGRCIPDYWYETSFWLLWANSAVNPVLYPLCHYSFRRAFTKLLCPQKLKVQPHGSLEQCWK
# Chain of Histamine H1 receptor (Homo sapiens) (P35367 whole entry): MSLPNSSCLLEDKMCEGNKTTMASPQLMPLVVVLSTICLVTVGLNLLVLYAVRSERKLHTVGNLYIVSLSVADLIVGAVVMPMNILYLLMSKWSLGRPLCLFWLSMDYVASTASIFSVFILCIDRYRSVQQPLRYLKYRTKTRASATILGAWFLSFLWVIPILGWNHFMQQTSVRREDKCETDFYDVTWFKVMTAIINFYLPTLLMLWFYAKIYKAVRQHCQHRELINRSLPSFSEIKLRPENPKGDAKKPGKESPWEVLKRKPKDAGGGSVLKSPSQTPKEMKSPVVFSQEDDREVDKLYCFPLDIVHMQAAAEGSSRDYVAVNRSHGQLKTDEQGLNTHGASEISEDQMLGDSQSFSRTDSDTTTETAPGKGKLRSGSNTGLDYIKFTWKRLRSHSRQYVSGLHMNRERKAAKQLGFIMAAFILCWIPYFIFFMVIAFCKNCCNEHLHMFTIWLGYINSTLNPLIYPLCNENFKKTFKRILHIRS
SMILES,pKi (Histamine H3 receptor [2]),Activity (Histamine H3 receptor [3]) [%],also measured
CN(C)C(=O)c1cc(OCCCN2CCCCC2)ccc1OCc1ccccc1Cl,7.33,–,Activity [1]: 8%
CN(C)C(=O)c1cc(OCCC2CCCN2C)ccc1OCc1ccccc1Cl (stereo unspecified),5.74,–,–
CN(C)Cc1cc(OCCCN2CCCCC2)ccc1OCc1ccccc1Cl,8.62,–,–
CN(C)C(=O)c1cc(OCCCN2CCOCC2)ccc1OCc1ccccc1Cl,5.96,–,–
COC(=O)c1ccc(COc2ccc(Nc3ncnc4ccccc34)c(CN(C)C)c2)cc1,–,31,–
CN(C)Cc1cc(OCC2CCCN(C)C2)ccc1OCc1ccccc1Cl (stereo unspecified),6.82,–,–
CCOC(=O)CCCOc1ccc(Nc2ncnc3ccccc23)c(CN(C)C)c1,–,28,–
CN(C)Cc1cc(OCCCN2CCCCC2)ccc1Nc1ncnc2ccccc12,9.52,–,Activity [1]: -2.5%; pEC50 (Histamine H3 receptor [4]): 9.70; Activity [5]: 2.4%; pKi (Histamine H3 receptor [6]): 8.01
CN(C)CCCOc1ccc(Nc2ncnc3ccccc23)c(CN(C)C)c1,7.74,–,Activity [1]: -15%; Activity [5]: -2%
COc1ccccc1COc1ccc(OCCCN2CCCCC2)cc1C(=O)N(C)C,7.92,–,–
COc1ccccc1COc1ccc(OCCCN2CCOCC2)cc1C(=O)N(C)C,5.86,73.4,–
CN(C)CCCOc1ccc(Oc2ncnc3ccccc23)c(C(=O)N(C)C)c1,5.99,–,–
CN(C)Cc1cc(OCCCCl)ccc1Nc1ncnc2ccccc12,–,49,–
CN(C)C(=O)c1cc(OC2CCCCO2)ccc1OCc1ccccc1Cl (stereo unspecified),–,17,–
CN(C)CCCOc1ccc(OCc2ccccc2Cl)c(CN(C)C)c1,6.87,–,–
CN(C)Cc1cc(O)ccc1Nc1ncnc2ccccc12,–,11.6,–
CN(C)C(=O)c1cc(OCc2ccc(F)cc2)ccc1OCc1ccccc1Cl,–,33,–
CC(C)N1CCC(Oc2ccc(OCc3ccccc3Cl)c(CN(C)C)c2)C1 (stereo unspecified),7.06,–,–
